Measurements taken from PMC4844575, “The influence of different metal-chelate conjugates of pentixafor on the CXCR4 affinity” (EJNMMI Research, 2016).
Where a SMILES comes first, the peptide text is derived from it. Side-chain parts run from the residue outwards. [ ]: non-standard residue; d: D form. The star is where a group is joined. DFO(CSNHC6H4NHCS) = CC(=O)N(O)CCCCCNC(=O)CCC(=O)N(O)CCCCCNC(=O)CCC(=O)N(O)CCCCCNC(=S)Nc1ccc(NC(=S)*)cc1; DOTAGA = O=C(O)CN1CCN(CC(=O)O)CCN(C(CCC(=O)*)C(=O)O)CCN(CC(=O)O)CC1; DOTA = O=C(O)CN1CCN(CC(=O)O)CCN(CC(=O)*)CCN(CC(=O)O)CC1; NODAGA = O=C(O)CN1CCN(CC(=O)O)CCN(C(CCC(=O)*)C(=O)O)CC1; X2 = O=C(O)CN1CCN(CC(=O)O)CCN(Cc2ccc(NC(=S)*)cc2)CC1; NOTA = O=C(O)CN1CCN(CC(=O)O)CCN(CC(=O)*)CC1; 2Nal = N[C@@H](Cc1ccc2ccccc2c1)C(=O)O; dNMeOrn = CN[C@H](CCCN)C(=O)O; 4Amb = NCc1ccc(C(=O)O)cc1

test system: hCXCR4; assay: not given; details: read-out: affinity towards hCXCR4; cited from earlier work

Compound | IC50
cyclo(-D-Tyr-N-Me-D-Orn(aminomethylbenzoyl (AMB)-DOTA)-L-Arg-L-2-Nal-Gly-) [[^68Ga]pentixafor] | 5 nM

test system: OH1 human small cell lung cancer tumor-bearing mice; assay: not given; details: mouse, in vivo, 1 h; cited from earlier work

Compound | uptake in CXCR4-expressing tissue (tumor)
cyclo(-D-Tyr-N-Me-D-Orn(aminomethylbenzoyl (AMB)-DOTA)-L-Arg-L-2-Nal-Gly-) [[^68Ga]pentixafor] | 6.16 % ± 1.16 % ID/g

target: T1, CXCR4 (Homo sapiens, UniProt P61073); assay: competitive binding assay on Jurkat cells with [125I]FC131 as radioligand; details: not given
T1 construct: endogenous in cells; host or cells: Jurkat T-cell leukemia cells
T1 sequence (P61073 whole entry): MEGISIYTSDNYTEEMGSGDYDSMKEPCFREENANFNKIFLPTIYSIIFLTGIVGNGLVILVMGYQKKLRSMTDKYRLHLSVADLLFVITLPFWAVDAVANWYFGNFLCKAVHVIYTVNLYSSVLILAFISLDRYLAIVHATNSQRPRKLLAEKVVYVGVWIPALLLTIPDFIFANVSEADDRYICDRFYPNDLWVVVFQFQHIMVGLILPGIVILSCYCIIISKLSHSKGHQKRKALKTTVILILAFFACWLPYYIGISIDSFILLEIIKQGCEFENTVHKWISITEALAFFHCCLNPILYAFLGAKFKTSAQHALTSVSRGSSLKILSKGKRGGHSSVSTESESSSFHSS
Procedure: For in vitro experiments, the Jurkat T - cell line was used. […] The cell line was cultured at 37 °C in a humidified atmosphere with 5 % CO2 and passaged two to three times a week, depending on the cell count.
Jurkat cells (4 × 10^5 cells per vial) were incubated with the respective peptide of interest at the final concentrations ranging from 10^−11 to 10^−5 M and app. […] The total sample volume was 250 μL. After an incubation time of 120 min, the vials were centrifuged at 1300 rpm (Heraeus Megafuge, Thermo) for 3 min and the supernatant was removed. The cells were washed twice with 200 μL ice-cold Hank’s balanced salt solution (HBSS). After each washing step, the samples were centrifuged and the supernatant removed. Finally, the amount of displaced and bound radioligand in the combined fractions of the supernatant and the cell pellet was quantified. The half maximal inhibitory concentration (IC50) values were determined using GraphPad Prism software.

IC50 | Compound
275 ± 106 nM | CN1C(=O)[C@@H](Cc2ccc(O)cc2)NC(=O)CNC(=O)[C@H](Cc2ccc3ccccc3c2)NC(=O)[C@H](CCCNC(=N)N)NC(=O)[C@H]1CCCNC(=O)c1ccc(CNC(=O)CCC(C(=O)O)N2CCN(CC(=O)O)CCN(CC(=O)O)CC2)cc1 (some centres unmarked) [Compound 4] (cyclo([2Nal]G[dY][dNMeOrn]([4Amb-NODAGA])R))
200 ± 73 nM | CN1C(=O)[C@@H](Cc2ccc(O)cc2)NC(=O)CNC(=O)[C@H](Cc2ccc3ccccc3c2)NC(=O)[C@H](CCCNC(=N)N)NC(=O)[C@H]1CCCNC(=O)c1ccc(CNC(=S)Nc2ccc(CC(CN(CCN(CC(=O)O)CC(=O)O)CC(=O)O)N(CC(=O)O)CC(=O)O)cc2)cc1 (some centres unmarked) [Compound 7]
105 ± 35 nM | CC(=O)N(O)CCCCCNC(=O)CCC(=O)N(O)CCCCCNC(=O)CCC(=O)N(O)CCCCCNC(=S)Nc1ccc(NC(=S)NCc2ccc(C(=O)NCCC[C@@H]3C(=O)N[C@@H](CCCNC(=N)N)C(=O)N[C@@H](Cc4ccc5ccccc5c4)C(=O)NCC(=O)N[C@H](Cc4ccc(O)cc4)C(=O)N3C)cc2)cc1 [Compound 8] (cyclo([2Nal]G[dY][dNMeOrn]([4Amb-DFO(CSNHC6H4NHCS)])R))

Further lines, the compound ahead of its results:

Compound | IC50
CN1C(=O)[C@@H](Cc2ccc(O)cc2)NC(=O)CNC(=O)[C@H](Cc2ccc3ccccc3c2)NC(=O)[C@H](CCCNC(=N)N)NC(=O)[C@H]1CCCNC(=O)c1ccc(CNC(=O)CCC(C(=O)O)N2CCN(CC(=O)O)CCN(CC(=O)O)CCN(CC(=O)O)CC2)cc1 (some centres unmarked) [Compound 2] (cyclo([2Nal]G[dY][dNMeOrn]([4Amb-DOTAGA])R)) | 654 ± 263 nM
CN1C(=O)[C@@H](Cc2ccc(O)cc2)NC(=O)CNC(=O)[C@H](Cc2ccc3ccccc3c2)NC(=O)[C@H](CCCNC(=N)N)NC(=O)[C@H]1CCCNC(=O)c1ccc(CNC(=O)CN2CCN(CC(=O)O)CCN(CC(=O)O)CC2)cc1 [Compound 3] (cyclo([2Nal]G[dY][dNMeOrn]([4Amb-NOTA])R)) | 253 ± 49 nM
CN1C(=O)[C@@H](Cc2ccc(O)cc2)NC(=O)CNC(=O)[C@H](Cc2ccc3ccccc3c2)NC(=O)[C@H](CCCNC(=N)N)NC(=O)[C@H]1CCCNC(=S)Nc1ccc(CN2CCN(CC(=O)O)CCN(CC(=O)O)CC2)cc1 [Compound 5] (cyclo([2Nal]G[dY][dNMeOrn](X2)R)) | 115 ± 24 nM

same assay, conditions: Jurkat T-cells, 4 × 10^5 cells per vial, app. 0.1 nM [125I]FC131, 120 min incubation, mean ± SD (n = 3)

IC50 | Compound
29.4 ± 7.6 nM | CN1C(=O)[C@@H](Cc2ccc(O)cc2)NC(=O)CNC(=O)[C@H](Cc2ccc3ccccc3c2)NC(=O)[C@H](CCCNC(=N)N)NC(=O)[C@H]1CCCNC(=O)c1ccc(CNC(=O)CCC(C(=O)O)N2CCN(CC(=O)O)CCN(CC(=O)O)CCN(CC(=O)O)CC2)cc1 (some centres unmarked) [[^natBi^3+]2] [metal not drawn] (cyclo([2Nal]G[dY][dNMeOrn]([4Amb-DOTAGA])R))
1160 ± 220 nM | CN1C(=O)[C@@H](Cc2ccc(O)cc2)NC(=O)CNC(=O)[C@H](Cc2ccc3ccccc3c2)NC(=O)[C@H](CCCNC(=N)N)NC(=O)[C@H]1CCCNC(=O)c1ccc(CNC(=O)CCC(C(=O)O)N2CCN(CC(=O)O)CCN(CC(=O)O)CCN(CC(=O)O)CC2)cc1 (some centres unmarked) [[^natCu^2+]2] [metal not drawn] (cyclo([2Nal]G[dY][dNMeOrn]([4Amb-DOTAGA])R))
220 ± 57 nM | CN1C(=O)[C@@H](Cc2ccc(O)cc2)NC(=O)CNC(=O)[C@H](Cc2ccc3ccccc3c2)NC(=O)[C@H](CCCNC(=N)N)NC(=O)[C@H]1CCCNC(=O)c1ccc(CNC(=O)CN2CCN(CC(=O)O)CCN(CC(=O)O)CC2)cc1 [[^natF]AlF-3] (cyclo([2Nal]G[dY][dNMeOrn]([4Amb-NOTA])R))
329 ± 49 nM | CN1C(=O)[C@@H](Cc2ccc(O)cc2)NC(=O)CNC(=O)[C@H](Cc2ccc3ccccc3c2)NC(=O)[C@H](CCCNC(=N)N)NC(=O)[C@H]1CCCNC(=S)Nc1ccc(CN2CCN(CC(=O)O)CCN(CC(=O)O)CC2)cc1 [[^natF]AlF-5] (cyclo([2Nal]G[dY][dNMeOrn](X2)R))
380 ± 102 nM | CN1C(=O)[C@@H](Cc2ccc(O)cc2)NC(=O)CNC(=O)[C@H](Cc2ccc3ccccc3c2)NC(=O)[C@H](CCCNC(=N)N)NC(=O)[C@H]1CCCNC(=O)c1ccc(CNC(=O)CCC(C(=O)O)N2CCN(CC(=O)O)CCN(CC(=O)O)CCN(CC(=O)O)CC2)cc1 (some centres unmarked) [[^natGa^3+]2] [metal not drawn] (cyclo([2Nal]G[dY][dNMeOrn]([4Amb-DOTAGA])R))
188 ± 2.8 nM | CN1C(=O)[C@@H](Cc2ccc(O)cc2)NC(=O)CNC(=O)[C@H](Cc2ccc3ccccc3c2)NC(=O)[C@H](CCCNC(=N)N)NC(=O)[C@H]1CCCNC(=O)c1ccc(CNC(=O)CCC(C(=O)O)N2CCN(CC(=O)O)CCN(CC(=O)O)CCN(CC(=O)O)CC2)cc1 (some centres unmarked) [[^natLu^3+]2] [metal not drawn] (cyclo([2Nal]G[dY][dNMeOrn]([4Amb-DOTAGA])R))
148 ± 27 nM | CC(=O)N(O)CCCCCNC(=O)CCC(=O)N(O)CCCCCNC(=O)CCC(=O)N(O)CCCCCNC(=S)Nc1ccc(NC(=S)NCc2ccc(C(=O)NCCC[C@@H]3C(=O)N[C@@H](CCCNC(=N)N)C(=O)N[C@@H](Cc4ccc5ccccc5c4)C(=O)NCC(=O)N[C@H](Cc4ccc(O)cc4)C(=O)N3C)cc2)cc1 [[^natZr^4+]8, metal not drawn] (cyclo([2Nal]G[dY][dNMeOrn]([4Amb-DFO(CSNHC6H4NHCS)])R))

More lines, now with the values behind:

Compound | IC50
CN1C(=O)[C@@H](Cc2ccc(O)cc2)NC(=O)CNC(=O)[C@H](Cc2ccc3ccccc3c2)NC(=O)[C@H](CCCNC(=N)N)NC(=O)[C@H]1CCCNC(=O)c1ccc(CNC(=O)CN2CCN(CC(=O)O)CCN(CC(=O)O)CCN(CC(=O)O)CC2)cc1 [[^natBi^3+]1] [metal not drawn] (cyclo([dY][dNMeOrn]([4Amb-DOTA])R[2Nal]G)) | 22.1 ± 7 nM
CN1C(=O)[C@@H](Cc2ccc(O)cc2)NC(=O)CNC(=O)[C@H](Cc2ccc3ccccc3c2)NC(=O)[C@H](CCCNC(=N)N)NC(=O)[C@H]1CCCNC(=O)c1ccc(CNC(=O)CN2CCN(CC(=O)O)CCN(CC(=O)O)CCN(CC(=O)O)CC2)cc1 [[^natCu^2+]1] [metal not drawn] (cyclo([dY][dNMeOrn]([4Amb-DOTA])R[2Nal]G)) | 131 ± 11 nM
CN1C(=O)[C@@H](Cc2ccc(O)cc2)NC(=O)CNC(=O)[C@H](Cc2ccc3ccccc3c2)NC(=O)[C@H](CCCNC(=N)N)NC(=O)[C@H]1CCCNC(=O)c1ccc(CNC(=O)CN2CCN(CC(=O)O)CCN(CC(=O)O)CC2)cc1 [[^natCu^2+]3] [metal not drawn] (cyclo([2Nal]G[dY][dNMeOrn]([4Amb-NOTA])R)) | 46.1 ± 26 nM
CN1C(=O)[C@@H](Cc2ccc(O)cc2)NC(=O)CNC(=O)[C@H](Cc2ccc3ccccc3c2)NC(=O)[C@H](CCCNC(=N)N)NC(=O)[C@H]1CCCNC(=O)c1ccc(CNC(=O)CCC(C(=O)O)N2CCN(CC(=O)O)CCN(CC(=O)O)CC2)cc1 (some centres unmarked) [[^natCu^2+]4] [metal not drawn] (cyclo([2Nal]G[dY][dNMeOrn]([4Amb-NODAGA])R)) | 343 ± 10 nM
CN1C(=O)[C@@H](Cc2ccc(O)cc2)NC(=O)CNC(=O)[C@H](Cc2ccc3ccccc3c2)NC(=O)[C@H](CCCNC(=N)N)NC(=O)[C@H]1CCCNC(=O)c1ccc(CNC(=O)CN2CCN(CC(=O)O)CCN(CC(=O)O)CC2)cc1 [[^natGa^3+]3] [metal not drawn] (cyclo([2Nal]G[dY][dNMeOrn]([4Amb-NOTA])R)) | 17.8 ± 7.7 nM
CN1C(=O)[C@@H](Cc2ccc(O)cc2)NC(=O)CNC(=O)[C@H](Cc2ccc3ccccc3c2)NC(=O)[C@H](CCCNC(=N)N)NC(=O)[C@H]1CCCNC(=O)c1ccc(CNC(=O)CCC(C(=O)O)N2CCN(CC(=O)O)CCN(CC(=O)O)CC2)cc1 (some centres unmarked) [[^natGa^3+]4] [metal not drawn] (cyclo([2Nal]G[dY][dNMeOrn]([4Amb-NODAGA])R)) | 342 ± 72 nM
CN1C(=O)[C@@H](Cc2ccc(O)cc2)NC(=O)CNC(=O)[C@H](Cc2ccc3ccccc3c2)NC(=O)[C@H](CCCNC(=N)N)NC(=O)[C@H]1CCCNC(=O)c1ccc(CNC(=O)CN2CCN(CC(=O)O)CCN(CC(=O)O)CCN(CC(=O)O)CC2)cc1 [[^natLu^3+]1] [metal not drawn] (cyclo([dY][dNMeOrn]([4Amb-DOTA])R[2Nal]G)) | 40.9 ± 12 nM
CN1C(=O)[C@@H](Cc2ccc(O)cc2)NC(=O)CNC(=O)[C@H](Cc2ccc3ccccc3c2)NC(=O)[C@H](CCCNC(=N)N)NC(=O)[C@H]1CCCNC(=O)c1ccc(CNC(=O)CCC(C(=O)O)N2CCN(CC(=O)O)CCN(CC(=O)O)CCN(CC(=O)O)CC2)cc1 (some centres unmarked) [[^natY^3+]2] [metal not drawn] (cyclo([2Nal]G[dY][dNMeOrn]([4Amb-DOTAGA])R)) | 126 ± 89 nM
